Entries after “also recorded” stand apart in the source; their conditions may differ.
Tests used:
Plasmodium falciparum = assay: 3-day SYBR Green I in vitro growth inhibition of Plasmodium falciparum; assay type: cell-based; settings: wild-type Plasmodium falciparum, 72 hours, read-out: IC50 of growth inhibition on in vitro culture of Plasmodium falciparum
Protocol: 100 μL of complete culture medium was added to a 96-well plate. 200 μL of a compound stock solution with a concentration of 200 μM was added to the first well. Gradient dilution (11 concentration gradients) was performed at a 1/2 ratio according to the doubling gradient dilution. Dihydroartemisinin (DHA) was used as a positive control, complete culture medium was used as a negative control, and red blood cells without Plasmodium falciparum or compounds were used as a background control.
100 μL of wild-type Plasmodium falciparum culture (1% parasitemia, 4% hematocrit) was accurately added to each well, so that finally, the parasitemia in each well was 0.5%, and the hematocrit was 2%. The final concentration gradients of the compound were 100 μM, 50 μM, 25 μM, 12.5 μM, 6.25 μM, 3.125 μM, 1.5625 μM, 0.78125 μM, 0.390625 μM, 0.195313 μM, and 0.097656 μM. […] After the incubation was completed, a fluorescence intensity was recorded on a microplate reader with an excitation wavelength of 485 nm and an emission wavelength of 535 nm. The inhibition rate of the small molecule inhibitor on the growth of Plasmodium falciparum was calculated based on the fluorescence intensity.
[formula] • where Fltreated, Flbackground, and Flcontrol represent the fluorescence intensity values of the candidate small molecule drug group, the red blood cell control group, and the untreated control group, respectively. […]

293T cells = assay: 3-day CCK-8 cytotoxicity assay, 293T; assay type: cell-based, human; settings: 72 hours
Protocol: (§1) Mammalian 293T and HepG2 cells were cultured and passaged, trypsinized, and resuspended in DMEM. The cells were counted using a hemocytometer and diluted to 10^5 cells/mL. The cell suspension was evenly added to a 96-well plate, with 100 μL per well. After the cells were subjected to attachment culture in a 37° C. incubator (5% CO2) for 24 hours, the inhibitors of the corresponding concentrations were added. Gradient dilution (11 concentration gradients) was performed at a 1/2 ratio according to the doubling gradient dilution. Complete culture medium was used as a negative control, and DMEM was used as a background control. After the culture in a 37° C. incubator (5% CO2) for 72 hours, 10 µL of CCK8 reagent was added to each well. The plate was incubated in a 37° C. incubator (5% CO2) for 1 hour. The absorbance at a 450 nm wavelength was read by a microplate reader, and a survival rate was calculated based on the absorbance.
(§2) [formula] • where Abtreated, Abbackground, and Abcontrol represent the absorbance values of the small molecule drug group, the DMEM control group, and the untreated control group, respectively. The inhibition rate of the drug was calculated based on the survival rate at different concentrations, and the growth inhibition curve was summarized as inhibition rate-drug concentration. The IC50 was calculated using SPSS 18.0 software.

HepG2 cells = assay: 3-day CCK-8 cytotoxicity assay, HepG2; assay type: cell-based, human; settings: HepG2, 72 hours
Protocol: as §1, §2

[1] = test system: PfAP2-O5 target genes (invasion genes); assay: RNA-seq analysis of invasion gene expression after inhibitor treatment; assay type: cell-based, Plasmodium falciparum; settings: wild-type strain treated with 1 M triazoloquinoline derivative for one life cycle
Protocol: Wild-type and pfap2-o5 conditional knockdown Plasmodium falciparum strains were treated with the triazoloquinoline derivative represented by formula (I), respectively. After strict synchronization of the Plasmodium falciparum strains, […] triazoloquinoline derivative was added one life cycle in advance. After one life cycle, the ring (10-15 hours), trophozoite (28-32 hours), and schizont (40-44 hours) stage cultures of the wild-type and pfap2-o5 conditional knockdown Plasmodium falciparum strains treated with the triazoloquinoline derivative were collected. Total RNA was purified using the Direct-zol RNA kit, strand-specific RNA sequencing libraries were then prepared using KAPA mRNA beads, and the RNA was fragmented. The libraries were sequenced on the Illumina HiSeq X Ten system, and the differential gene expression between the two Plasmodium falciparum strains after inhibitor treatment was analyzed.

[2] = Liver microsomal metabolism, mouse; assay type: in vitro ADME; parameters: half-life / CLint scaled: dose or concentration left out as unconfirmed
Protocol: (§3) In the microsomal metabolism assay, the inhibitor was incubated with liver microsomes from different species; the reaction was terminated at different time points; the remaining amount of the inhibitor in the samples at each time point was determined using LC-MS/MS. The percentage of parent drug remaining was calculated, and the hepatic intrinsic clearance CLinit(liver) was finally obtained. Testosterone was used as a control in this study to verify the reliability of the experimental system. The detailed procedures were as follows:
(§4) The incubation system consisted of 0.1 M Tris-HCl buffer (pH 7.4), 1 mM MgCl2, 1 mM NADPH (Nicotinamide Adenine Dinucleotide Phosphate), and 0.5 mg/mL microsomes, and the final reaction volume was 200 μL. […] inhibitor and testosterone were pre-incubated with liver microsomes from different species in a 37° C. water bath for 5 minutes. 100 μL of NADPH was added to initiate the reaction. 400 μL of stop solution was added to terminate the reaction at time points of 0 minutes, 5 minutes, 15 minutes, 30 minutes, 45 minutes, and 60 minutes. 40 μL of internal standard was added, and the mixture was vortexed for 5 minutes and centrifuged at […] and 4° C. for 5 minutes. 100 μL of the supernatant was taken and diluted with 100 μL of water for injection and analysis. The retention time of the compound and the internal standard, chromatogram acquisition, and chromatogram integration were processed by Analyst 1.6.3 software. The compound was subjected to linear regression with a weighting coefficient of 1/X^2 to calculate the concentration at each time point. The natural logarithm of the percentage remaining at each time point was linearly regressed against the incubation time to calculate the in vitro elimination rate constant k. The half-life (T1/2) and hepatic intrinsic clearance CLint(liver) of the test article were calculated according to the following formula.
(§5) hepatic microsomal clearance CLint(mic)=0.693/half-life/mg microsomal protein per mL; hepatic intrinsic clearance CLint(liver)=hepatic microsomal clearance×mg microsomal protein/gram of liver×liver weight-to-body weight ratio. The liver weight-to-body weight ratios of mice, rats, and humans were […], respectively; the average value of mg microsomal protein/gram of liver in different species was 45.

[3] = Liver microsomal metabolism, rat; assay type: in vitro ADME; parameters: half-life / CLint scaled: dose or concentration left out as unconfirmed
Protocol: as §3, §4, §5

[4] = Liver microsomal metabolism, human; assay type: in vitro ADME; parameters: half-life / CLint scaled: dose or concentration left out as unconfirmed
Protocol: as §3, §4, §5

[5] = test system: artemisinin-resistant Plasmodium falciparum strains; assay: Ring-stage survival assay against resistant Plasmodium falciparum strains; assay type: cell-based; settings: in combination with DHA, 6 hours exposure, then 66 hours culture
Protocol: This experiment aimed to evaluate the killing effect of the triazoloquinoline derivative as a combination drug against drug-resistant Plasmodium falciparum strains using the gold-standard drug resistance assay. The detailed implementation procedures were as follows: • 1. Culture of Plasmodium falciparum when the parasitemia was greater than 4% and most parasites were at the ring (R) stage, the culture was synchronized with Sorbitol for 10 minutes and vortexed for 5 seconds; • 2. Synchronization with sorbitol was repeated 30-48 hours later (depending on the parasite stage); • 3. Smear test under microscope after approximately 30 hours of culture: if the proportion of the mature schizont (S) stage (10-12 merozoites) was greater than 0.5%, the operation proceeded to procedure 4; if the proportion of the mature S stage (10-12 merozoites) was less than 0.5%, procedure 2 was repeated; • 4. […] After the culture was mixed well, approximately 200 μL of the culture was pipetted and centrifuged for smear test under microscope (this could be done approximately 10 minutes in advance); the parasitemia was quickly calculated (must be greater than 0.5%); • 7. […] After 66 hours of the culture, smear test under microscope was performed to calculate the parasitemia, and the survival rate was calculated.

In the case of `Cc1cccc(-c2nnc3c4ccccc4nc(N4CCN(C(=O)Cc5ccccc5)CC4)n23)c1` [triazoloquinoline derivative], the IC50 (Plasmodium falciparum) is reported as 2630 nM, the “cytotoxicity to mammalian cells (293T)” value (293T cells) is reported as “low cytotoxicity; also recorded: almost no toxicity” and the “cytotoxicity to mammalian cells (HepG2)” value (HepG2 cells) is reported as “low cytotoxicity; also recorded: almost no toxicity”. For the same molecule, the “decrease of expression levels of merozoite surface structural protein family genes (mRNA level)” value [1] was “more than 1.5 fold”, the CLint scaled ([2]; liver microsomes, pH 7.4, mouse, hepatic intrinsic clearance scaled from microsomes) was 342 mL/min/kg and the clearance classification ([2]; mouse liver microsomes) was “high-clearance compound”. For the same molecule, the k ([2]; mouse liver microsomes, 0.5 mg/mL, NADPH) was 0.0432 min⁻¹, the half-life ([2]; pH 7.4, mouse liver microsomes) was 16 min and the CLint scaled ([3]; liver microsomes, pH 7.4, rat, hepatic intrinsic clearance scaled from microsomes) was 59.4 mL/min/kg. The half-life ([3]; pH 7.4, rat liver microsomes) was 42 min, the clearance classification ([3]; rat liver microsomes) was “moderate-clearance compound” and the k ([3]; rat liver microsomes, 0.5 mg/mL, NADPH) was 0.0165 min⁻¹. The clearance classification ([4]; human liver microsomes) was “moderate-clearance compound”, the k ([4]; human liver microsomes, 0.5 mg/mL, NADPH) was 0.0053 min⁻¹ and the CLint scaled ([4]; liver microsomes, pH 7.4, human, hepatic intrinsic clearance scaled from microsomes) was 8.54 mL/min/kg. The half-life ([4]; pH 7.4, human liver microsomes) was 131 min and the “killing effect against artemisinin-resistant strains (ring-stage survival)” value [5] was “more effectively kill”.

— patent US20260130918A1, “TRANSCRIPTION FACTOR PFAP2-O5 INHIBITOR FOR PLASMODIUM FALCIPARUM, PHARMACEUTICAL COMPOSITION, AND DRUG FOR TREATING MALARIA RESISTANT TO ARTEMISININ AND ANALOG THEREOF” (priority 2023, published 2026)
